Assay results: ChEMBL document CHEMBL1806404, “Synthesis, molecular modeling and biological evaluation of β-ketoacyl-acyl carrier protein synthase III (FabH) as novel antibacterial agents” (Bioorg Med Chem, 2011)
≈ marks a conversion by molar mass, not a printed value.

Key:
Staphylococcus aureus = test: Antibacterial activity against Staphylococcus aureus ATCC6538 after 24 hrs by MTT assay; type: functional; settings: ATCC6538, 24 h
Bacillus subtilis = test: Antibacterial activity against Bacillus subtilis ATCC6633 after 24 hrs by MTT assay; type: functional; settings: ATCC6633, 24 h
Escherichia coli = test: Antibacterial activity against Escherichia coli ATCC35218 after 24 hrs by MTT assay; type: functional; settings: ATCC35218, 24 h
[1] = Toxicity in erythrocytes assessed as hemolytic activity; type: cell-based; settings: erythrocyte
Pseudomonas aeruginosa = test: Antibacterial activity against Pseudomonas aeruginosa ATCC13525 after 24 hrs by MTT assay; type: functional; settings: ATCC13525, 24 h
[2] = target: T1, 3-oxoacyl-[acyl-carrier-protein] synthase 3 (Escherichia coli, UniProt C3TDZ2); test: Inhibition of N-terminal His-tagged Escherichia coli FabH expressed in Escherichia coli BL21 (DE3) using [3H]acetyl-coA after 25 mins by liquid scintillation counting
T1 sequence (C3TDZ2 whole entry): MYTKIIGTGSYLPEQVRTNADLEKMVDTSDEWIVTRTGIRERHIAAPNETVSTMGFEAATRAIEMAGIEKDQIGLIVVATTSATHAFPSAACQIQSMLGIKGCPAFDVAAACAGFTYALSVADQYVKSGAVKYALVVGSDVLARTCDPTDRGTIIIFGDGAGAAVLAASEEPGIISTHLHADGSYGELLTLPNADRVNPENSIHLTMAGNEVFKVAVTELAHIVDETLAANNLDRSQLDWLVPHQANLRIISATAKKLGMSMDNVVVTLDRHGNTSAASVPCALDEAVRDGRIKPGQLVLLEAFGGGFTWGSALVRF

Row | MIC (Staphylococcus aureus) [µg/mL] | MIC (Bacillus subtilis) [µg/mL] | MIC (Escherichia coli) [µg/mL] | MIC (Pseudomonas aeruginosa) [µg/mL] | IC50 [2] [µM] | Ki [2] [pM] | SMILES | MHC [1] [mg/mL]
1 | 25 (≈ 71.5 µM) | 12.5 (≈ 35.7 µM) | 12.5 (≈ 35.7 µM) | 25 (≈ 71.5 µM) | 34.3 | – | Cc1ncc([N+](=O)[O-])n1CC(C)OC(=O)/C=C/c1ccc(Cl)cc1 (stereo unspecified) | > 10
2 | 3.13 (≈ 7.94 µM) | 3.13 (≈ 7.94 µM) | 6.25 (≈ 15.9 µM) | 6.25 (≈ 15.9 µM) | 15.6 | – | Cc1ncc([N+](=O)[O-])n1CC(C)OC(=O)/C=C/c1ccc(Br)cc1 (stereo unspecified) | > 10
3 | > 100 | > 100 | 100 (≈ 304 µM) | 50 (≈ 152 µM) | – | – | Cc1ccc(/C=C/C(=O)OC(C)Cn2c([N+](=O)[O-])cnc2C)cc1 (stereo unspecified) | –
4 | 50 (≈ 145 µM) | 50 (≈ 145 µM) | > 100 | > 100 | – | – | COc1ccc(/C=C/C(=O)OC(C)Cn2c([N+](=O)[O-])cnc2C)cc1 (stereo unspecified) | –
5 | 1.56 (≈ 3.99 µM) | 6.25 (≈ 16 µM) | 1.56 (≈ 3.99 µM) | 3.13 (≈ 8 µM) | 2.5 | – | Cc1ncc([N+](=O)[O-])n1CC(C)OC(=O)/C=C/c1ccc(-c2ccccc2)cc1 (stereo unspecified) | > 10
6 | 3.13 (≈ 7.43 µM) | 6.25 (≈ 14.8 µM) | 3.13 (≈ 7.43 µM) | 6.25 (≈ 14.8 µM) | 6.7 | – | Cc1ncc([N+](=O)[O-])n1CC(C)OC(=O)/C=C/c1ccc(OCc2ccccc2)cc1 (stereo unspecified) | > 10
7 | 6.25 (≈ 17.4 µM) | 12.5 (≈ 34.9 µM) | 6.25 (≈ 17.4 µM) | 6.25 (≈ 17.4 µM) | 19.8 | – | Cc1ncc([N+](=O)[O-])n1CC(C)OC(=O)/C=C/c1ccc(N(C)C)cc1 (stereo unspecified) | > 10
8 | 12.5 (≈ 32.5 µM) | 6.25 (≈ 16.3 µM) | 3.13 (≈ 8.15 µM) | 6.25 (≈ 16.3 µM) | 9.4 | – | Cc1ncc([N+](=O)[O-])n1CC(C)OC(=O)/C=C/c1ccc(Cl)cc1Cl (stereo unspecified) | > 10
9 | 50 (≈ 137 µM) | 25 (≈ 68.4 µM) | 25 (≈ 68.4 µM) | 50 (≈ 137 µM) | 48.9 | – | Cc1ncc([N+](=O)[O-])n1CC(C)OC(=O)/C=C/c1cccc2ccccc12 (stereo unspecified) | > 10
10 | 100 (≈ 274 µM) | 50 (≈ 137 µM) | 50 (≈ 137 µM) | 50 (≈ 137 µM) | – | – | Cc1ncc([N+](=O)[O-])n1CC(C)OC(=O)/C=C/c1ccc2ccccc2c1 (stereo unspecified) | –
11 | 50 (≈ 156 µM) | > 100 | 50 (≈ 156 µM) | 50 (≈ 156 µM) | – | – | Cc1ncc([N+](=O)[O-])n1CC(C)OC(=O)/C=C/c1cccs1 (stereo unspecified) | –
12 | > 100 | > 100 | > 100 | > 100 | – | 1.32 | Cc1ncc([N+](=O)[O-])n1CC(C)OC(=O)/C=C/c1ccccc1 (stereo unspecified) | –
13 | > 100 | > 100 | > 100 | > 100 | – | – | Cc1ncc([N+](=O)[O-])n1CC(C)OC(=O)/C=C/c1ccccc1F (stereo unspecified) | –
14 | 50 (≈ 143 µM) | 50 (≈ 143 µM) | 50 (≈ 143 µM) | 25 (≈ 71.5 µM) | – | – | Cc1ncc([N+](=O)[O-])n1CC(C)OC(=O)/C=C/c1ccccc1Cl (stereo unspecified) | –
15 | 25 (≈ 63.4 µM) | 50 (≈ 127 µM) | 25 (≈ 63.4 µM) | 25 (≈ 63.4 µM) | 40.1 | – | Cc1ncc([N+](=O)[O-])n1CC(C)OC(=O)/C=C/c1ccccc1Br (stereo unspecified) | > 10
16 | > 100 | > 100 | > 100 | > 100 | – | 1.79 | COc1ccccc1/C=C/C(=O)OC(C)Cn1c([N+](=O)[O-])cnc1C (stereo unspecified) | –
17 | 6.25 (≈ 18.8 µM) | 6.25 (≈ 18.8 µM) | 3.13 (≈ 9.39 µM) | 3.13 (≈ 9.39 µM) | 8.2 | – | Cc1ncc([N+](=O)[O-])n1CC(C)OC(=O)/C=C/c1cccc(F)c1 (stereo unspecified) | > 10
18 | 12.5 (≈ 31.7 µM) | 25 (≈ 63.4 µM) | 12.5 (≈ 31.7 µM) | 12.5 (≈ 31.7 µM) | 27.5 | – | Cc1ncc([N+](=O)[O-])n1CC(C)OC(=O)/C=C/c1cccc(Br)c1 (stereo unspecified) | > 10
19 | > 100 | > 100 | > 100 | > 100 | – | 2.73 | COc1cccc(/C=C/C(=O)OC(C)Cn2c([N+](=O)[O-])cnc2C)c1 (stereo unspecified) | –
20 | 100 (≈ 300 µM) | 50 (≈ 150 µM) | 50 (≈ 150 µM) | 50 (≈ 150 µM) | – | – | Cc1ncc([N+](=O)[O-])n1CC(C)OC(=O)/C=C/c1ccc(F)cc1 (stereo unspecified) | –
21 | – | – | – | – | 43.4 | – | O=C(O)/C=C/c1ccccc1 [CINNAMIC ACID] | > 10
22 | – | – | – | – | 28.5 | – | Cc1ncc([N+](=O)[O-])n1CC(C)O (stereo unspecified) [SECNIDAZOLE] | > 10

Row | SMILES | MIC (Staphylococcus aureus) [µg/mL] | MIC (Bacillus subtilis) [µg/mL] | MIC (Escherichia coli) [µg/mL] | MIC (Pseudomonas aeruginosa) [µg/mL] | IC50 [2] [µM] | Ki [2] [pM] | MHC [1] [mg/mL]
23 | NC[C@H]1O[C@H](O[C@H]2[C@H](O)[C@@H](O[C@H]3O[C@H](CO)[C@@H](O)[C@H](N)[C@H]3O)[C@H](N)C[C@@H]2N)[C@H](O)[C@@H](O)[C@@H]1O [KANAMYCIN] | 1.56 (≈ 3.22 µM) | 1.56 (≈ 3.22 µM) | 3.13 (≈ 6.46 µM) | 3.13 (≈ 6.46 µM) | – | – | –
